The target of one experiment is Mu-type opioid receptor (Homo sapiens, UniProt P35372). The experiment is described as follows: DRUGMATRIX: Opiate mu (OP3, MOP) radioligand binding (ligand: [3H] Diprenorphine). Conditions: cho-k1; Not Active = under 50% inhibition at 10 µM. It counts as cell membranes, CHO-K1, Membrane.
A short description of experiment [1]: DRUGMATRIX: Imidazoline I2, Central radioligand binding (ligand: [3H] Idazoxan). It counts as cell membranes, Rattus norvegicus, Wistar, Cerebral cortex, Membrane. The conditions noted are these: Not Active = under 50% inhibition at 10 µM.
The target in a further experiment is Glycine receptor (Rattus norvegicus, UniProt P22771+P24524+P07727+P20781). Type of experiment: cell membranes, Wistar, Spinal cord, Membrane. Also: in other assays of this panel Not Active means under 50% inhibition at 10 µM.
Experiment [2] deals with T1, Receptor-type tyrosine-protein phosphatase C (Homo sapiens, UniProt P08575).
T1 sequence (P08575 whole entry): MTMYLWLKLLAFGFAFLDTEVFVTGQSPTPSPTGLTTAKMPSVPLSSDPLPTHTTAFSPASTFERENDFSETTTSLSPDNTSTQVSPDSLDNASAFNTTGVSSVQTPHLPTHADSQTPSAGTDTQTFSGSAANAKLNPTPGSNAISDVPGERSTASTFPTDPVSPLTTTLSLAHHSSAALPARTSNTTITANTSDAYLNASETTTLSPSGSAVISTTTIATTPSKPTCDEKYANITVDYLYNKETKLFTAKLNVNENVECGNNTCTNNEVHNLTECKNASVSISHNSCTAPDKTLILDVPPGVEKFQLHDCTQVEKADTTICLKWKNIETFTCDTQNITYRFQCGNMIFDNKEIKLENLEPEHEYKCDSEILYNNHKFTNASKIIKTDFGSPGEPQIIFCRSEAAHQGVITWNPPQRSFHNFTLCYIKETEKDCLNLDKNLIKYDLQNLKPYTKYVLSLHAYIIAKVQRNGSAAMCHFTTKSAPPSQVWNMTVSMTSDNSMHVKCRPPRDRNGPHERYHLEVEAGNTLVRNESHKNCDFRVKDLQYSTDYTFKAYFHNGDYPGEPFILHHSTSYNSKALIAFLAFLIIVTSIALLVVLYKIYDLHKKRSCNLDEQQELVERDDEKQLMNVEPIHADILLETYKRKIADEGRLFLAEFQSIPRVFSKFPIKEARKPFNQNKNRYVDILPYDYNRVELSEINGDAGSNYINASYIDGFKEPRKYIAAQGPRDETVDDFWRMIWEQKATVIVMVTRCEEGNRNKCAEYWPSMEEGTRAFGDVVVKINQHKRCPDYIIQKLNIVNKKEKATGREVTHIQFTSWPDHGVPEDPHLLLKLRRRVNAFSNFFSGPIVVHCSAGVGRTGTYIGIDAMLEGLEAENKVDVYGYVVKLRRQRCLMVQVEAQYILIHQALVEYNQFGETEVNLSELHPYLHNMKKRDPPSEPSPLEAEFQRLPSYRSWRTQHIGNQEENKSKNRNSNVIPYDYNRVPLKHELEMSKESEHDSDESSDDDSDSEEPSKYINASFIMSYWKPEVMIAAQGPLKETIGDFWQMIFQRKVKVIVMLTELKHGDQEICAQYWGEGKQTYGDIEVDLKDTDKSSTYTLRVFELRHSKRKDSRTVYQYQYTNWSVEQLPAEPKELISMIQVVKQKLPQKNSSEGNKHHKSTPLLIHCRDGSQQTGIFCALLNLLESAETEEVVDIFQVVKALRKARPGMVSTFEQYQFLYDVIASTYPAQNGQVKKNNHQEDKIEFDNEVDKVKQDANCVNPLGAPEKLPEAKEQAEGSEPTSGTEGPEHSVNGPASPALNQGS
More on the design: species or system Escherichia coli.

Another experiment deals with T2, Substance-K receptor (Homo sapiens, UniProt P21452).
T2 sequence (P21452 whole entry): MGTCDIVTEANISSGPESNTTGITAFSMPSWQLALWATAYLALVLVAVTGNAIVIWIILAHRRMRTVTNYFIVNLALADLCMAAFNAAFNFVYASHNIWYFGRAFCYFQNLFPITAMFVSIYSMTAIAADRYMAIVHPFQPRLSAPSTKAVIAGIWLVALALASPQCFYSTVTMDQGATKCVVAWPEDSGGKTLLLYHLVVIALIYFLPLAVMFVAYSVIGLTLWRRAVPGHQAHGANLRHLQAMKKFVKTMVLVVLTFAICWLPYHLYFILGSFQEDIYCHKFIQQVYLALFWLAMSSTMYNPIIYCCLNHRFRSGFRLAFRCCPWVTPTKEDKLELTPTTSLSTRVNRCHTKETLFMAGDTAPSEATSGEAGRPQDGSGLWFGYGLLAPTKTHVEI
It counts as cell membranes, CHO, Membrane. The conditions noted are these: cho.

In experiment [3] the target is Protein phosphatase 3 catalytic subunit alpha (Homo sapiens, UniProt Q08209). On the set-up: species or system Escherichia coli.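 Also: inhibition of calcineurin (PP2B) enzyme activity, measured with DiFMUP as the substrate; in other assays of this panel Not Active means under 50% inhibition at 10 µM.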

Mu-type opioid receptor, sequence (P35372 whole entry): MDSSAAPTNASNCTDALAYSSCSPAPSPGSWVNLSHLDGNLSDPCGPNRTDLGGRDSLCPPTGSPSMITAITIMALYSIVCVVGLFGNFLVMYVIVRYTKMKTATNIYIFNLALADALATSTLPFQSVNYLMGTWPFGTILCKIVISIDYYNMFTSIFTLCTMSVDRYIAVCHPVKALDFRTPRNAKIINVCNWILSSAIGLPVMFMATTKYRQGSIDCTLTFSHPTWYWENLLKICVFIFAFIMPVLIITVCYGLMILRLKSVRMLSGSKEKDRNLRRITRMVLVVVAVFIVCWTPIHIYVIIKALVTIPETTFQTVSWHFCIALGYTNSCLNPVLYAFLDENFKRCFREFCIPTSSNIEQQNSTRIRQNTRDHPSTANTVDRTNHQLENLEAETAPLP

Consider `CO[C@@H]1[C@@H](OC)[C@H](C)[C@@](O)(CC(=O)O)O[C@H]1[C@H](C)[C@H]1O[C@@]2(CC[C@@](C)([C@H]3CC[C@@](C)([C@@H]4O[C@@H]([C@H]5O[C@](C)(O)[C@H](C)C[C@@H]5C)C[C@@H]4O[C@@H]4C[C@H](OC)[C@@H](OC)[C@H](C)O4)O3)O2)C[C@H](O)[C@H]1C` [MADURAMICIN ACID], for which the IC50 (in general, the concentration that inhibits the measured activity by half) on Mu-type opioid receptor is “Not Active”; in experiment [1] (read-out: IC50), 0.607 µM; at Glycine receptor, “Not Active”; in experiment [2], “Not Active”; against Substance-K receptor, “Not Active”; in experiment [3], “Not Active”. For the same molecule, the Ki (as a rule, the dissociation constant of the complex between target and ligand, obtained from inhibition or displacement) in experiment [1] (read-out: Ki) was determined as 0.405 µM.
With `COc1c2occc2cc2ccc(=O)oc12` [METHOXSALEN], the IC50 result (at Mu-type opioid receptor; in experiment [1]; against Glycine receptor; in experiment [2]; against Substance-K receptor; in experiment [3]) was “Not Active” each time. The Ki result in experiment [1] is recorded as “Not Active”.
Take `C[C@H]1C[C@@H]2[C@H]([C@@H](O)C[C@@]3(C)[C@H]2CC[C@]3(O)C(=O)CO)[C@@]2(C)C=CC(=O)C=C12` [METHYLPREDNISOLONE]: the IC50 result (on Mu-type opioid receptor; in experiment [1]; against Glycine receptor; in experiment [2]; at Substance-K receptor; in experiment [3]) was “Not Active” throughout. Moreover, in experiment [1], the inhibition constant Ki entry is “Not Active”.
Turning to `Cc1cccc(C)c1OCC(C)N` (stereo not drawn) [MEXILETINE], the IC50 result (on Mu-type opioid receptor; in experiment [1]; against Glycine receptor; in experiment [2]; on Substance-K receptor; in experiment [3]) was “Not Active” each time. Also, the Ki entry in experiment [1] is reported as “Not Active”.
In the case of `Nc1cc(N2CCCCC2)nc(N)[n+]1[O-]` [MINOXIDIL], the IC50 result (at Mu-type opioid receptor; in experiment [1]; against Glycine receptor; in experiment [2]; on Substance-K receptor; in experiment [3]) was “Not Active” in each case. For the same molecule, the Ki entry in experiment [1] was “Not Active”.
Regarding `CO[C@H]1/C=C/O[C@@]2(C)Oc3c(C)c(O)c4c(O)c(c(/C=N/N5CCN(C6CCCC6)CC5)c(O)c4c3C2=O)NC(=O)/C(C)=C\C=C\[C@H](C)[C@H](O)[C@@H](C)[C@@H](O)[C@@H](C)[C@H](OC(C)=O)[C@@H]1C` [RIFAPENTINE], the IC50 result (at Mu-type opioid receptor; in experiment [1]; against Glycine receptor; in experiment [2]; against Substance-K receptor; in experiment [3]) was “Not Active” each time. Besides, the inhibition constant (Ki) result in experiment [1] is “Not Active”.
For `CCCCOc1cc(CC2CNC(=O)N2)ccc1OC` (stereo not drawn) [RO-201724], the IC50 result (on Mu-type opioid receptor; in experiment [1]; on Glycine receptor; in experiment [2]; against Substance-K receptor; in experiment [3]) was “Not Active” in each case. Also, the Ki entry in experiment [1] is “Not Active”.
For `O=C(Oc1ccccc1C(=O)O)c1ccccc1O` [SALSALATE], the IC50 result (on Mu-type opioid receptor; in experiment [1]; against Glycine receptor; in experiment [2]; at Substance-K receptor; in experiment [3]) was “Not Active” each time. The Ki result in experiment [1] was “Not Active”.
As to `O=C(O)c1cn(-c2ccc(F)cc2)c2cc(N3CCNCC3)c(F)cc2c1=O` [SARAFLOXACIN], the IC50 result (on Mu-type opioid receptor; in experiment [1]; on Glycine receptor; in experiment [2]; at Substance-K receptor; in experiment [3]) was “Not Active” throughout. Also, the Ki entry in experiment [1] was “Not Active”.
Take `CC(C)NCC(O)c1ccc(NS(C)(=O)=O)cc1` (stereo not drawn) [SOTALOL]: the IC50 result (on Mu-type opioid receptor; in experiment [1]; on Glycine receptor; in experiment [2]; against Substance-K receptor; in experiment [3]) was “Not Active” throughout. For the same molecule, in experiment [1], the Ki result is recorded as “Not Active”.
For the molecule `O.O.O.O.O.O.[Cl-].[Cl-].[Sr+2]` [STRONTIUM CHLORIDE HEXAHYDRATE], the IC50 entry (on Mu-type opioid receptor; in experiment [1]; against Glycine receptor; in experiment [2]; against Substance-K receptor; in experiment [3]) was “Not Active” in each case. Besides, the Ki result in experiment [1] is recorded as “Not Active”.
`O=C1C(CC[S+]([O-])c2ccccc2)C(=O)N(c2ccccc2)N1c1ccccc1` (stereo not drawn) [SULFINPYRAZONE]: the IC50 result (at Mu-type opioid receptor; in experiment [1]; against Glycine receptor; in experiment [2]; on Substance-K receptor; in experiment [3]) was “Not Active” throughout. The Ki result in experiment [1] is given as “Not Active”.
`NC(=O)N1C(=O)/C(=C(\O)c2cccs2)c2cc(Cl)ccc21` [TENIDAP]: the IC50 entry (on Mu-type opioid receptor; in experiment [1]; on Glycine receptor; in experiment [2]; at Substance-K receptor; in experiment [3]) was “Not Active” throughout. The Ki entry in experiment [1] is reported as “Not Active”.
In the case of `COc1cc2nc(N3CCN(C(=O)C4CCCO4)CC3)nc(N)c2cc1OC` (stereo not drawn) [TERAZOSIN], the IC50 result at Mu-type opioid receptor is “Not Active”; in experiment [1] (read-out: IC50), 1.27 µM; at Glycine receptor it was “Not Active”; in experiment [2], “Not Active”; at Substance-K receptor it was “Not Active”; in experiment [3] it was “Not Active”. Besides, the Ki in experiment [1] (read-out: Ki) stood at 0.846 µM.
For the molecule `CN(C/C=C/C#CC(C)(C)C)Cc1cccc2ccccc12` [TERBINAFINE], the IC50 entry (at Mu-type opioid receptor; in experiment [1]; at Glycine receptor; in experiment [2]; against Substance-K receptor; in experiment [3]) was “Not Active” throughout. Moreover, in experiment [1], the inhibition constant (Ki) entry is on record as “Not Active”.
For the molecule `CCCCNc1ccc(C(=O)OCCN(C)C)cc1` [TETRACAINE], the IC50 result (at Mu-type opioid receptor; in experiment [1]; at Glycine receptor; in experiment [2]; against Substance-K receptor; in experiment [3]) was “Not Active” each time. In addition, the Ki result in experiment [1] is “Not Active”.
As to `Cn1c(=O)c2nc[nH]c2n(C)c1=O.O` [THEOPHYLLINE], the IC50 entry (at Mu-type opioid receptor; in experiment [1]; against Glycine receptor; in experiment [2]; at Substance-K receptor; in experiment [3]) was “Not Active” each time. In experiment [1], the Ki result is given as “Not Active”.
Regarding `CS(=O)(=O)c1ccc([C@@H](O)[C@@H](CO)NC(=O)C(Cl)Cl)cc1` [THIAMPHENICOL], the IC50 result (at Mu-type opioid receptor; in experiment [1]; against Glycine receptor; in experiment [2]; on Substance-K receptor; in experiment [3]) was “Not Active” in each case. For the same molecule, the Ki entry in experiment [1] was “Not Active”.
For the molecule `CCN(CC)CCNC(=O)c1cc(S(C)(=O)=O)ccc1OC` [TIAPRIDE], the IC50 entry (at Mu-type opioid receptor; in experiment [1]; against Glycine receptor; in experiment [2]; against Substance-K receptor; in experiment [3]) was “Not Active” each time. The Ki entry in experiment [1] is “Not Active”.

The record behind these values is ChEMBL document CHEMBL1909046, “DrugMatrix in vitro pharmacology data”.
